From US20050059718A1, “Methods of using zonisamide as an adjunctive therapy for partial seizures” (priority 2003, published 2005)
“Also recorded” adds a separate entry of the source.

Tests used:
[1] = patients; cited from earlier work
[2] = Excerpt: The clinical manifestations of myeloma vary from smoldering myeloma to symptomatic plasma cell dyscrasia. A lot of variables, alone or in combination, have been used as a discriminating index of malignant proliferation of B-lymphocytes or plasma cells.
[3] = test system: GABA/benzodiazepine receptor ionophore complex; conditions: in vitro; no change in chloride flux; cited from earlier work
[4] = test system: cultured mouse spinal cord neurons; conditions: 10-30 μg/mL, cited from earlier work
sodium channels = conditions: in vitro; cited from earlier work
carbonic anhydrase = conditions: relative to acetazolamide; cited from earlier work
T-type Ca2+ currents = conditions: in vitro; cited from earlier work
[5] = patients on regular dosages; cited from earlier work
rat hippocampal slices = conditions: 10-30 μg/mL; cited from earlier work
[6] = test system: dopaminergic and serotonergic neurotransmission; conditions: in vivo microdialysis; cited from earlier work
[7] = cited from earlier work
liver enzymes = conditions: cited from earlier work

In the case of `NC(=O)N1c2ccccc2C=Cc2ccccc21` [Carbamazepine], the “association with multiple myeloma” value [1] is listed as “associated with development of MM”.
For `O=C1NC(=O)C(c2ccccc2)(c2ccccc2)N1` [phenyloin], the “association with multiple myeloma” value [1] is given as “implicated in several incidents of multiple myeloma”.
For `CCC1(c2ccccc2)C(=O)NCNC1=O` [primidone], the “association with multiple myeloma” value [1] is given as “associated with development of MM”.
In the case of `CCCC(CCC)C(=O)[O-].[Na+]` [sodium valproate], the “seizure control after replacing zonisamide” value ([2]; 13-month follow-up) is reported as “prevented convulsions”.
For `NS(=O)(=O)Cc1noc2ccccc12` [zonisamide, 1,2-benzisoxazole-3-methanesulfonamide], the “binding to GABA/benzodiazepine receptor ionophore complex” value [3] is listed as “binds to the GABA/benzodiazepine receptor ionophore complex in an allosteric fashion”, the “postsynaptic GABA or glutamate responses” value ([4]; cultured mouse spinal cord neurons) is listed as “without affecting postsynaptic GABA or glutamate responses” and the synaptically-driven electrical activity [4] is listed as “suppresses synaptically-driven electrical activity”. For the same compound, the “effect on sodium channels” value (sodium channels) was “blocks sodium channels”, the “carbonic anhydrase inhibiting activity, inhibition compared to acetazolamide” value (carbonic anhydrase) was 1/50 and the “effect on voltage-dependent, transient inward currents (T-type Ca2+ currents)” value (T-type Ca2+ currents) was “reduces voltage-dependent, transient inward currents”. The “correlation between dosage or serum level and immunoglobulin levels” value [5] was “no significant correlation”, the “neuronal or glial uptake of [3H]-GABA” value (rat hippocampal slices) was “without affecting” and the “dopaminergic and serotonergic neurotransmission” value [6] was “facilitates both dopaminergic and serotonergic neurotransmission”. The half-life ([7]; in vivo) was “long half-life”, the “time required to achieve steady-state levels” value ([7]; upon reaching a stable dose or following dosage adjustment) was “up to two weeks” and the “liver (hepatic) enzyme induction” value (liver enzymes) was “not known to be a hepatic enzyme inducer; also recorded: no liver enzyme inducing activity”. The “Bence-Jones protein in urine” value ([2]; human, in vivo) was “not demonstrated”, the M-protein concentration ([2]; human, in vivo) was > 3.5 g/dL and the “bone marrow chromosomal analysis” value ([2]; human, in vivo) was “normal karyotype of 46 XY”. The diagnosis ([2]; human, in vivo) was “smoldering multiple myeloma”, the “helper T cell count (CD4)” value ([2]; human, in vivo) was “normal” and the peripheral blood examination ([2]; human, in vivo) was “no cytopenia”. The “serum IgA” value ([2]; human, in vivo) was 40 mg/dL, the “serum IgM” value ([2]; human, in vivo) was 38 mg/dL and the “serum creatinine, calcium and beta2-microglobulin” value ([2]; human, in vivo) was “not elevated”. For the same compound, the “serum immunoglobulin G (IgG)” value ([2]; human, in vivo) was 3.68 g/dL and the serum protein immunoelectrophoresis ([2]; human, in vivo) was “M-protein composed of IgG with a single lambda type of L-chain”.
